Measurements as given in patent publication US11325899B2, “Benzofurane and benzothiophene derivatives as PGE2 receptor modulators” (IDORSIA PHARMACEUTICALS LTD, priority 2017, dated 2022).

Assays:
Format in all cases: cell-based
PTGER2 (EP2) = target: T1, PTGER2 (EP2) (Homo sapiens, UniProt P43116); experiment: hEP2 b-arrestin assay (PathHunter HEK 293 PTGER2 b-arrestin cells); conditions: antagonistic activity, beta-arrestin assay; read-out: hEP2 b-arr IC50
T1 construct: host or cells: HEK 293 (PathHunter PTGER2 b-arrestin cell line)
T1 sequence (P43116 whole entry): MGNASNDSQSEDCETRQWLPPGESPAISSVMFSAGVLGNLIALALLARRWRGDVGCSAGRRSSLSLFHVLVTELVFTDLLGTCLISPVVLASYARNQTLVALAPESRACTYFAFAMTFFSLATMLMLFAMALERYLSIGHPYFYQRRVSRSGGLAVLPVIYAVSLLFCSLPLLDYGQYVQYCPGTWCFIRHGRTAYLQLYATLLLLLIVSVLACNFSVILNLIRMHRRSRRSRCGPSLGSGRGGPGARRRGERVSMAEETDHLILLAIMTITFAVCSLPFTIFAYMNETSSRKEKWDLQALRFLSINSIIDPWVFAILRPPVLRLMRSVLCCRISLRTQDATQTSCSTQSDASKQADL
Summary of the method: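 PathHunter HEK293 cells with ProLink-tagged EP2 and EA-β-arrestin 2 preincubated 15 min at 37 °C with compound (10 μM-2 nM or 1 μM-0.2 nM), then stimulated 120 min with 5 μM PGE2 (EC80). β-gal complementation read by chemiluminescence; IC50 from duplicate dose-response versus DMSO.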

PTGER4 (EP4) = target: T2, PTGER4 (EP4) (Homo sapiens, UniProt P35408); experiment: hEP4 b-arrestin assay (PathHunter HEK 293 PTGER4 b-arrestin cells); conditions: antagonistic activity, beta-arrestin assay; read-out: hEP4 b-arr IC50
T2 construct: host or cells: HEK 293 (PathHunter PTGER4 b-arrestin cell line)
T2 sequence (P35408 whole entry): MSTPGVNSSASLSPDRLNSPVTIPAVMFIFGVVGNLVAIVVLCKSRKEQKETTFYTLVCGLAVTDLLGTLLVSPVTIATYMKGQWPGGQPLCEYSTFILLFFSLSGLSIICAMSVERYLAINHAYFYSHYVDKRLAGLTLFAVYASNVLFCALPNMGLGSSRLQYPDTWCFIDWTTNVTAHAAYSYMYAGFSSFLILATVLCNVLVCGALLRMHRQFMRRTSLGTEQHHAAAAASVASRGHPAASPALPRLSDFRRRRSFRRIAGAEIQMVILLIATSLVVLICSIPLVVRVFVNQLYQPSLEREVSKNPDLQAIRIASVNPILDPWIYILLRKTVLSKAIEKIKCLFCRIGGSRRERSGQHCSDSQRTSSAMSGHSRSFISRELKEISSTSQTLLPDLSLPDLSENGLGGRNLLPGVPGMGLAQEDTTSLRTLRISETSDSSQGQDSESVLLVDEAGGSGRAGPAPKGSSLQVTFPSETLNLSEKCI
Summary of the method: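 PathHunter HEK 293 cells expressing ProLink-tagged human EP4 and EA-β-arrestin 2, seeded 24 h before. Compounds (10 μM–2 nM or 1 μM–0.2 nM) preincubated 15 min at 37 °C, then 20 nM PGE2 (EC80) for 120 min at 37 °C. β-gal complementation luminescence read; IC50 from duplicate dose-response curves versus DMSO control.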

EP2 receptor = target: T3, EP2 receptor (Homo sapiens, UniProt P43116); experiment: hEP2 cAMP assay (SF295 glioblastoma cells, HTRF cAMP, PGE2 stimulation); conditions: antagonistic activity
T3 construct: SF295 glioblastoma cells express high endogenous EP2 and no EP4; host or cells: SF295 glioblastoma cells
T3 sequence (P43116 whole entry): as the sequence (P43116 whole entry) above
Summary of the method: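 SF295 glioblastoma cells with endogenous EP2 and no EP4, in HBSS/HEPES/BSA with 2 mM IBMX, pre-incubated 45 min at room temperature with compound, then stimulated 30 min with 75 nM PGE2 (EC80). cAMP measured by HTRF; IC50 fitted from duplicate % cAMP versus DMSO control.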

IC50 (PTGER2 (EP2))	IC50 (PTGER4 (EP4))	IC50 (EP2 receptor)	Compound
55 nM	340 nM	53 nM	COc1ccc(Cl)c2c(CCNc3cc(-c4ccc(C(=O)O)c(OC(C)C)c4)ncn3)c(C)sc12 [Example 98, 4-{6-[2-(4-Chloro-7-methoxy-2-methyl-benzo[b]thiophen-3-yl)-ethylamino]-pyrimidin-4-yl}-2-isopropoxy-benzoic acid]
42 nM	665 nM	188 nM	CCOc1cc(-c2cc(NCCc3c(C)sc4c(C)c(F)ccc34)ncn2)ccc1CC(=O)O [Example 112, (2-Ethoxy-4-{6-[2-(6-fluoro-2,7-dimethyl-benzo[b]thiophen-3-yl)-ethylamino]-pyrimidin-4-yl}-phenyl)-acetic acid]
5 nM	673 nM	4 nM	Cc1cc(-c2cc(NCCc3c(C)oc4ccccc34)ncn2)sc1C(=O)O [Example 6, 3-Methyl-5-{6-[2-(2-methyl-benzofuran-3-yl)-ethylamino]-pyrimidin-4-yl}-thiophene-2-carboxylic acid]
47 nM	911 nM	70 nM	Cc1oc2c(C)cc(F)cc2c1CCNc1cc(-c2ccc(C(=O)O)c(OC3CCCC3)c2)ncn1 [Example 154, 2-Cyclopentyloxy-4-{6-[2-(5-fluoro-2,7-dimethyl-benzofuran-3-yl)-ethylamino]-pyrimidin-4-yl}-benzoic acid]
51 nM	114 nM	32 nM	COc1cccc2c(CCNc3cc(-c4ccc(C(=O)O)c(SC)c4)ncn3)c(C#N)sc12 [Example 13, 4-{6-[2-(2-Cyano-7-methoxy-benzo[b]thiophen-3-yl)-ethylamino]-pyrimidin-4-yl}-2-methylsulfanyl-benzoic acid]
65 nM	66 nM	3030 nM	COc1cc(-c2cc(NCCc3c(C#N)sc4c(C)cc(F)cc34)ncn2)ccc1CC(=O)O [Example 168, (4-{6-[2-(2-Cyano-5-fluoro-7-methyl-benzo[b]thiophen-3-yl)-ethylamino]-pyrimidin-4-yl}-2-methoxy-phenyl)-acetic acid]

The remaining lines, values behind:

Compound	IC50 (PTGER2 (EP2))	IC50 (PTGER4 (EP4))	IC50 (EP2 receptor)
CCCCOc1cc(-c2cc(NCCc3c(C)sc4c(C)cc(F)cc34)ncn2)cc(F)c1C(=O)O [Example 144, 2-Butoxy-6-fluoro-4-{6-[2-(5-fluoro-2,7-dimethyl-benzo[b]thiophen-3-yl)-ethylamino]-pyrimidin-4-yl}-benzoic acid]	26 nM	92 nM	26 nM
COc1cc(Cl)cc2c(CCNc3cc(-c4ccc(C(=O)O)c(OC5CCC5)c4F)ncn3)c(C)oc12 [Example 147, 4-{6-[2-(5-Chloro-7-methoxy-2-methyl-benzofuran-3-yl)-ethylamino]-pyrimidin-4-yl}-2-cyclobutoxy-3-fluoro-benzoic acid]	213 nM	873 nM	117 nM
Cc1sc2c(C)ccc(F)c2c1CCNc1cc(-c2ccc(C(=O)O)c(OC3CCC3)c2)ncn1 [Example 136, 2-Cyclobutoxy-4-{6-[2-(4-fluoro-2,7-dimethyl-benzo[b]thiophen-3-yl)-ethylamino]-pyrimidin-4-yl}-benzoic acid]	13 nM	155 nM	91 nM
Cc1oc2c(C)cc(F)cc2c1CCNc1cc(-c2ccc(C(=O)O)c(OC3CCC3)c2)ncn1 [Example 140, 2-Cyclobutoxy-4-{6-[2-(5-fluoro-2,7-dimethyl-benzofuran-3-yl)-ethylamino]-pyrimidin-4-yl}-benzoic acid]	37 nM	1420 nM	72 nM
Cc1sc2c(C)cc(F)cc2c1CCNc1cc(-c2ccc(C(=O)O)c(OCC(C)C)c2)ncn1 [Example 184, 4-{6-[2-(5-Fluoro-2,7-dimethyl-benzo[b]thiophen-3-yl)-ethylamino]-pyrimidin-4-yl}-2-isobutoxy-benzoic acid]	7 nM	311 nM	39 nM
